Measurements taken from PubChem BioAssay (NCI).
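Compound exposure: 48 hours, 5 concentrations, 96-well plates. The concentration for 50% growth inhibition is given as GI50. TGI is the concentration that stops growth completely.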

Legend:
Assay in all cases: inhibition of tumour cell growth, NCI panel, 48 h
CCRF-CEM leukemia = system: CCRF-CEM leukemia
K-562 leukemia = system: K-562 leukemia
OVCAR-8 ovarian = system: OVCAR-8 ovarian
SK-MEL-5 melanoma = system: SK-MEL-5 melanoma
HCT-15 colon = system: HCT-15 colon
PC-3 prostate = system: PC-3 prostate
MDA-MB-231 breast = system: MDA-MB-231 breast
T-47D breast = system: T-47D breast
MDA-MB-435 = system: MDA-MB-435
HCT-116 colon = system: HCT-116 colon
SK-MEL-2 melanoma = system: SK-MEL-2 melanoma
EKVX NSCLC = system: EKVX NSCLC
MCF7 breast = system: MCF7 breast
SK-MEL-28 melanoma = system: SK-MEL-28 melanoma
HCC-2998 colon = system: HCC-2998 colon
UACC-62 melanoma = system: UACC-62 melanoma
SK-OV-3 ovarian = system: SK-OV-3 ovarian
NCI-H226 lung = system: NCI-H226 lung
A498 renal = system: A498 renal
IGROV1 ovarian = system: IGROV1 ovarian
SNB-75 CNS = system: SNB-75 CNS
NCI-H522 lung = system: NCI-H522 lung
DU-145 prostate = system: DU-145 prostate
BT-549 breast = system: BT-549 breast
ACHN renal = system: ACHN renal
OVCAR-5 ovarian = system: OVCAR-5 ovarian
SF-539 CNS = system: SF-539 CNS
SF-268 CNS = system: SF-268 CNS
MDA-MB-468 breast = system: MDA-MB-468 breast
HOP-92 NSCLC = system: HOP-92 NSCLC
CAKI-1 renal = system: CAKI-1 renal
KM12 colon = system: KM12 colon
HOP-62 NSCLC = system: HOP-62 NSCLC
UO-31 renal = system: UO-31 renal
RPMI-8226 leukemia = system: RPMI-8226 leukemia
OVCAR-4 ovarian = system: OVCAR-4 ovarian
HL-60(TB) leukemia = system: HL-60(TB) leukemia
SR leukemia = system: SR leukemia
SF-295 CNS = system: SF-295 CNS
MALME-3M melanoma = system: MALME-3M melanoma
SN12C renal = system: SN12C renal
NCI-H23 lung = system: NCI-H23 lung
UACC-257 melanoma = system: UACC-257 melanoma
NCI/ADR-RES ovarian = system: NCI/ADR-RES ovarian
HS 578T breast = system: HS 578T breast
RXF 393 renal = system: RXF 393 renal
SNB-19 CNS = system: SNB-19 CNS
MOLT-4 leukemia = system: MOLT-4 leukemia
M14 melanoma = system: M14 melanoma
COLO 205 colon = system: COLO 205 colon
A549 NSCLC = system: A549 NSCLC
HT29 colon = system: HT29 colon
LOX IMVI melanoma = system: LOX IMVI melanoma
U251 CNS = system: U251 CNS
OVCAR-3 ovarian = system: OVCAR-3 ovarian
TK-10 renal = system: TK-10 renal
786-0 renal = system: 786-0 renal
NCI-H460 lung = system: NCI-H460 lung
SW-620 colon = system: SW-620 colon

How did the GI50 (CCRF-CEM leukemia) turn out when `O=C(Cn1c(-c2ccccc2)nc2ccccc21)N=Nc1c(O)[nH]c2ccc(Cl)cc12` was run?
The GI50 was 20 µM.

And the TGI (CCRF-CEM leukemia)?
The TGI was > 100 µM.

What about the GI50 (K-562 leukemia) of the same molecule?
Its GI50 is 6.91 µM.

What about the TGI (K-562 leukemia) of the same molecule?
Its TGI is > 100 µM.

What about the GI50 (OVCAR-8 ovarian) of the same molecule?
Its GI50 is 16.1 µM.

And the TGI (OVCAR-8 ovarian)?
The TGI was 34.5 µM.

And the GI50 (SK-MEL-5 melanoma)?
The GI50 was 14.6 µM.

What about the TGI (SK-MEL-5 melanoma) of the same molecule?
The TGI was 31.3 µM.

And the GI50 (HCT-15 colon)?
Its GI50 is 9.6 µM.

And the TGI (HCT-15 colon)?
The TGI was 24 µM.

What about the GI50 (PC-3 prostate) of the same molecule?
Its GI50 is 12.7 µM.

And the TGI (PC-3 prostate)?
Its TGI is 33.8 µM.

What about the GI50 (MDA-MB-231 breast) of the same molecule?
The GI50 was 11.9 µM.

And the TGI (MDA-MB-231 breast)?
Its TGI is 24.9 µM.

What about the GI50 (T-47D breast) of the same molecule?
The GI50 was 11.6 µM.

And the TGI (T-47D breast)?
Its TGI is 30 µM.

And the GI50 (MDA-MB-435)?
The GI50 was 9.18 µM.

What about the TGI (MDA-MB-435) of the same molecule?
Its TGI is 26 µM.

What about the GI50 (HCT-116 colon) of the same molecule?
The GI50 was 10 µM.

What about the TGI (HCT-116 colon) of the same molecule?
The TGI was 29.3 µM.

What about the GI50 (SK-MEL-2 melanoma) of the same molecule?
The GI50 was 17.4 µM.

What about the TGI (SK-MEL-2 melanoma) of the same molecule?
Its TGI is 36.5 µM.

What about the GI50 (EKVX NSCLC) of the same molecule?
Its GI50 is 11 µM.

And the TGI (EKVX NSCLC)?
The TGI was 25.6 µM.

What about the GI50 (MCF7 breast) of the same molecule?
Its GI50 is 10.9 µM.

What about the TGI (MCF7 breast) of the same molecule?
The TGI was 25.2 µM.

What about the GI50 (SK-MEL-28 melanoma) of the same molecule?
Its GI50 is 14.4 µM.

And the TGI (SK-MEL-28 melanoma)?
The TGI was 30.2 µM.

And the GI50 (HCC-2998 colon)?
Its GI50 is 13.4 µM.

And the TGI (HCC-2998 colon)?
Its TGI is 27.5 µM.

What about the GI50 (UACC-62 melanoma) of the same molecule?
Its GI50 is 12.4 µM.

And the TGI (UACC-62 melanoma)?
Its TGI is 25.5 µM.

What about the GI50 (SK-OV-3 ovarian) of the same molecule?
Its GI50 is 19.3 µM.

And the TGI (SK-OV-3 ovarian)?
The TGI was 38.2 µM.

What about the GI50 (NCI-H226 lung) of the same molecule?
The GI50 was 12.1 µM.

What about the TGI (NCI-H226 lung) of the same molecule?
The TGI was 30.2 µM.

What about the GI50 (A498 renal) of the same molecule?
Its GI50 is 13.6 µM.

What about the TGI (A498 renal) of the same molecule?
The TGI was 27.3 µM.

What about the GI50 (IGROV1 ovarian) of the same molecule?
Its GI50 is 14.4 µM.

And the TGI (IGROV1 ovarian)?
The TGI was 29.9 µM.

What about the GI50 (SNB-75 CNS) of the same molecule?
Its GI50 is 10.3 µM.

And the TGI (SNB-75 CNS)?
The TGI was 23.6 µM.

What about the GI50 (NCI-H522 lung) of the same molecule?
Its GI50 is 10.3 µM.

What about the TGI (NCI-H522 lung) of the same molecule?
The TGI was 25.1 µM.

What about the GI50 (DU-145 prostate) of the same molecule?
The GI50 was 18.4 µM.

What about the TGI (DU-145 prostate) of the same molecule?
Its TGI is 40.2 µM.

What about the GI50 (BT-549 breast) of the same molecule?
Its GI50 is 16.7 µM.

What about the TGI (BT-549 breast) of the same molecule?
Its TGI is 35.7 µM.

What about the GI50 (ACHN renal) of the same molecule?
Its GI50 is 16 µM.

And the TGI (ACHN renal)?
The TGI was 34 µM.

What about the GI50 (OVCAR-5 ovarian) of the same molecule?
Its GI50 is 18.8 µM.

What about the TGI (OVCAR-5 ovarian) of the same molecule?
Its TGI is 48 µM.

And the GI50 (SF-539 CNS)?
Its GI50 is 14.7 µM.

What about the TGI (SF-539 CNS) of the same molecule?
The TGI was 30.5 µM.

And the GI50 (SF-268 CNS)?
The GI50 was 16.1 µM.

And the TGI (SF-268 CNS)?
The TGI was 47.9 µM.

What about the GI50 (MDA-MB-468 breast) of the same molecule?
Its GI50 is 5.77 µM.

What about the TGI (MDA-MB-468 breast) of the same molecule?
The TGI was 18.9 µM.

And the GI50 (HOP-92 NSCLC)?
Its GI50 is 13.6 µM.

And the TGI (HOP-92 NSCLC)?
Its TGI is 31.4 µM.

What about the GI50 (CAKI-1 renal) of the same molecule?
Its GI50 is 13.5 µM.

What about the TGI (CAKI-1 renal) of the same molecule?
Its TGI is 27 µM.

What about the GI50 (KM12 colon) of the same molecule?
Its GI50 is 19.2 µM.

And the TGI (KM12 colon)?
The TGI was 62.2 µM.

And the GI50 (HOP-62 NSCLC)?
The GI50 was 17.2 µM.

What about the TGI (HOP-62 NSCLC) of the same molecule?
Its TGI is 37.7 µM.

What about the GI50 (UO-31 renal) of the same molecule?
The GI50 was 11.4 µM.

What about the TGI (UO-31 renal) of the same molecule?
The TGI was 24.1 µM.

What about the GI50 (RPMI-8226 leukemia) of the same molecule?
Its GI50 is 20.5 µM.

What about the TGI (RPMI-8226 leukemia) of the same molecule?
The TGI was > 100 µM.

And the GI50 (OVCAR-4 ovarian)?
Its GI50 is 15.3 µM.

And the TGI (OVCAR-4 ovarian)?
Its TGI is 34.2 µM.

And the GI50 (HL-60(TB) leukemia)?
Its GI50 is 24 µM.

What about the TGI (HL-60(TB) leukemia) of the same molecule?
Its TGI is > 100 µM.

What about the GI50 (SR leukemia) of the same molecule?
The GI50 was 8.56 µM.

What about the TGI (SR leukemia) of the same molecule?
Its TGI is > 100 µM.

What about the GI50 (SF-295 CNS) of the same molecule?
Its GI50 is 12.3 µM.

What about the TGI (SF-295 CNS) of the same molecule?
The TGI was 26.1 µM.

What about the GI50 (MALME-3M melanoma) of the same molecule?
Its GI50 is 12.2 µM.

And the TGI (MALME-3M melanoma)?
The TGI was 25.5 µM.

What about the GI50 (SN12C renal) of the same molecule?
The GI50 was 15.5 µM.

What about the TGI (SN12C renal) of the same molecule?
Its TGI is 31.1 µM.

What about the GI50 (NCI-H23 lung) of the same molecule?
Its GI50 is 13.7 µM.

What about the TGI (NCI-H23 lung) of the same molecule?
The TGI was 28.2 µM.

What about the GI50 (UACC-257 melanoma) of the same molecule?
The GI50 was 14.1 µM.

What about the TGI (UACC-257 melanoma) of the same molecule?
Its TGI is 28.6 µM.

And the GI50 (NCI/ADR-RES ovarian)?
The GI50 was 12.8 µM.

And the TGI (NCI/ADR-RES ovarian)?
Its TGI is 29.7 µM.

What about the GI50 (HS 578T breast) of the same molecule?
The GI50 was 16.5 µM.

And the TGI (HS 578T breast)?
Its TGI is 49.6 µM.

And the GI50 (RXF 393 renal)?
The GI50 was 4.99 µM.

What about the TGI (RXF 393 renal) of the same molecule?
The TGI was 18.6 µM.

What about the GI50 (SNB-19 CNS) of the same molecule?
The GI50 was 16.7 µM.

What about the TGI (SNB-19 CNS) of the same molecule?
The TGI was 33.7 µM.

What about the GI50 (MOLT-4 leukemia) of the same molecule?
Its GI50 is 6.41 µM.

And the TGI (MOLT-4 leukemia)?
The TGI was > 100 µM.

What about the GI50 (M14 melanoma) of the same molecule?
Its GI50 is 17.7 µM.

What about the TGI (M14 melanoma) of the same molecule?
The TGI was 40.4 µM.

What about the GI50 (COLO 205 colon) of the same molecule?
Its GI50 is 21 µM.

What about the TGI (COLO 205 colon) of the same molecule?
Its TGI is 47.9 µM.

And the GI50 (A549 NSCLC)?
The GI50 was 13.6 µM.

And the TGI (A549 NSCLC)?
Its TGI is 30.8 µM.

And the GI50 (HT29 colon)?
Its GI50 is 14.7 µM.

And the TGI (HT29 colon)?
The TGI was 30.7 µM.

And the GI50 (LOX IMVI melanoma)?
Its GI50 is 14.5 µM.

And the TGI (LOX IMVI melanoma)?
The TGI was 28.6 µM.

And the GI50 (U251 CNS)?
The GI50 was 16.9 µM.

And the TGI (U251 CNS)?
The TGI was 33.4 µM.

And the GI50 (OVCAR-3 ovarian)?
The GI50 was 16.1 µM.

And the TGI (OVCAR-3 ovarian)?
Its TGI is 37.2 µM.

What about the GI50 (TK-10 renal) of the same molecule?
The GI50 was 17.5 µM.

What about the TGI (TK-10 renal) of the same molecule?
Its TGI is 35.6 µM.

And the GI50 (786-0 renal)?
The GI50 was 17.9 µM.

What about the TGI (786-0 renal) of the same molecule?
The TGI was 39 µM.

And the GI50 (NCI-H460 lung)?
The GI50 was 15.4 µM.

What about the TGI (NCI-H460 lung) of the same molecule?
The TGI was 33 µM.

And the GI50 (SW-620 colon)?
Its GI50 is 15.5 µM.

And the TGI (SW-620 colon)?
The TGI was 37.7 µM.
